Assay: xn = mol fraction of the nth substance listed
Conditions: 101 kPa, Liquid

CC(O)CN (centres undefined) [1-amino-2-propanol] + O
Conditions	mass density [kg/m3]	viscosity [mPa·s]
298.15 K, x1 = 0.05	999.9	2.11
298.15 K, x1 = 0.07	1000.35	2.696
298.15 K, x1 = 0.0986	1002.43	3.902
298.15 K, x1 = 0.1993	1004.57	9.7
298.15 K, x1 = 0.3003	999.91	15.54
298.15 K, x1 = 0.3955	992.94	22.19
298.15 K, x1 = 0.4929	985.82	26.76
298.15 K, x1 = 0.5995	978.02	29.01
298.15 K, x1 = 0.7002	971.66	29.99
298.15 K, x1 = 0.8006	965.96	30.4
298.15 K, x1 = 0.8992	961.08	28.55
298.15 K, x1 = 1	956.51	26.68
303.15 K, x1 = 0.05	997.07	1.856
303.15 K, x1 = 0.07	998.1	2.282
303.15 K, x1 = 0.0986	999.83	3.248
303.15 K, x1 = 0.1993	1001.03	7.671
303.15 K, x1 = 0.3003	996.08	12.04
303.15 K, x1 = 0.3955	989.08	16.82
303.15 K, x1 = 0.4929	981.92	19.5
303.15 K, x1 = 0.5995	974.2	21.38
303.15 K, x1 = 0.7002	967.74	22.78
303.15 K, x1 = 0.8006	962.01	22.97
303.15 K, x1 = 0.8992	957.12	22.19
303.15 K, x1 = 1	952.52	20.31
313.15 K, x1 = 0.05	992.68	1.431
313.15 K, x1 = 0.07	993.09	1.785
313.15 K, x1 = 0.0986	994.25	2.359
313.15 K, x1 = 0.1993	993.72	5.102
313.15 K, x1 = 0.3003	988.29	7.551
313.15 K, x1 = 0.3955	981.19	9.95
313.15 K, x1 = 0.4929	973.92	11.79
313.15 K, x1 = 0.5995	966.3	12.85
313.15 K, x1 = 0.7002	959.83	13.14
313.15 K, x1 = 0.8006	954.01	13.56
313.15 K, x1 = 0.8992	949.12	12.83
313.15 K, x1 = 1	944.42	12.51
323.15 K, x1 = 0.05	987.66	1.136
323.15 K, x1 = 0.07	987.41	1.393
323.15 K, x1 = 0.0986	988.2	1.561
323.15 K, x1 = 0.1993	986.18	3.582
323.15 K, x1 = 0.3003	980.32	5.59
323.15 K, x1 = 0.3955	973.13	6.649
323.15 K, x1 = 0.4929	965.84	7.64
323.15 K, x1 = 0.5995	958.38	7.994
323.15 K, x1 = 0.7002	951.77	8.473
323.15 K, x1 = 0.8006	945.87	8.748
323.15 K, x1 = 0.8992	940.96	8.041
323.15 K, x1 = 1	936.19	7.543
333.15 K, x1 = 0.05	982.03	0.929
333.15 K, x1 = 0.07	981.49	1.118
333.15 K, x1 = 0.0986	981.57	1.222
333.15 K, x1 = 0.1993	978.5	2.627
333.15 K, x1 = 0.3003	972.15	3.944
333.15 K, x1 = 0.3955	964.88	4.988
333.15 K, x1 = 0.4929	957.68	5.701
333.15 K, x1 = 0.5995	950.15	6.163
333.15 K, x1 = 0.7002	943.53	5.753
333.15 K, x1 = 0.8006	937.62	6.023
333.15 K, x1 = 0.8992	932.66	5.483
333.15 K, x1 = 1	927.84	5.22
343.15 K, x1 = 0.05	975.62	0.775
343.15 K, x1 = 0.07	974.99	0.922
343.15 K, x1 = 0.0986	973.44	0.993
343.15 K, x1 = 0.1993	970.55	2.088
343.15 K, x1 = 0.3003	963.77	2.904
343.15 K, x1 = 0.3955	956.45	3.619
343.15 K, x1 = 0.4929	949.25	4.075
343.15 K, x1 = 0.5995	941.71	4.371
343.15 K, x1 = 0.7002	935.09	4.565
343.15 K, x1 = 0.8006	929.19	4.467
343.15 K, x1 = 0.8992	924.2	3.927
343.15 K, x1 = 1	919.37	3.77
